The source of these data is paper PMC3521580 (Journal of medicinal chemistry, 2011).

Experiment [1] has as its target T1, human MC4R (Homo sapiens, UniProt P32245). The experiment is described as follows: cAMP biological response chemiluminescent immunoassay in Hek293/hMC4R cells. As to conditions: hMC4R cells, result in words. The experiment is classed as cell-based.
For experiment [2], the target named is T1, human MC4R. The experiment can be described thus: Time resolved fluorescence competition binding assay against Eu-NDP-α-MSH. As to conditions: for Relative potency to Ac-MSH(4): Table 2.

Molecules are shown by their SMILES. Read-outs that look alike come from different tables or passages of the source. Non-standard residues stand in square brackets, D forms with d. Residues, ends and D or L forms follow the SMILES beside them. *: point of attachment. X1 = CC(=O)NCCCC(CCCNC(C)=O)(NC(=O)CNC(=O)Cn1cc(CCC(=O)*)nn1)C(=O)NCCC(N)=O

T1 sequence (P32245 whole entry): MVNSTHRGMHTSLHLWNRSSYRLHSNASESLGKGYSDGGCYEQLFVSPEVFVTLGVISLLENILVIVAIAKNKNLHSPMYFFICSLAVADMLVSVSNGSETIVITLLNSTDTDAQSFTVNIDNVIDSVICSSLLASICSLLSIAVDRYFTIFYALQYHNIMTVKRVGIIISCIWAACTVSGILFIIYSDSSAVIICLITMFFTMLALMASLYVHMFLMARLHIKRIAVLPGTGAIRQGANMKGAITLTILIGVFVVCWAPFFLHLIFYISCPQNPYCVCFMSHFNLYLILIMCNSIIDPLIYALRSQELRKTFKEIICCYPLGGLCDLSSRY

For `CC(=O)NCCCC(CCCNC(C)=O)(NC(=O)CNC(=O)Cn1cc(CCC(=O)NCCCC[C@H](NC(C)=O)C(=O)N[C@@H](Cc2c[nH]cn2)C(=O)N[C@H](Cc2ccccc2)C(=O)N[C@@H](CCCNC(=N)N)C(=O)N[C@@H](Cc2c[nH]c3ccccc23)C(N)=O)nn1)C(=O)NCCC(N)=O` [NB397] (Ac-K(X1)H[dF]RW-NH2; N-terminus assumed), the “cAMP production, agonist activity at MC4R” value in experiment [1] is listed as “agonists”.
In experiment [2], `CC(=O)N[C@@H](CCCCNC(=O)CCc1cn(CC(=O)NCC(=O)N2CCC[C@H]2C(=O)NCC(=O)N2CCC[C@H]2C(=O)NCC(=O)N2CCC[C@H]2C(=O)NCC(=O)NCCCC(CCCNC(=O)CNC(=O)[C@@H]2CCCN2C(=O)CNC(=O)[C@@H]2CCCN2C(=O)CNC(=O)[C@@H]2CCCN2C(=O)CNC(=O)Cn2cc(CCC(=O)NCCCC[C@H](NC(C)=O)C(=O)N[C@@H](Cc3c[nH]cn3)C(=O)N[C@H](Cc3ccccc3)C(=O)N[C@@H](CCCNC(=N)N)C(=O)N[C@@H](Cc3c[nH]c4ccccc34)C(N)=O)nn2)(NC(=O)CNC(=O)CNC(=O)[C@@H]2CCCN2C(=O)CNC(=O)[C@@H]2CCCN2C(=O)CNC(=O)[C@@H]2CCCN2C(=O)CNC(=O)Cn2cc(CCC(=O)NCCCC[C@H](NC(C)=O)C(=O)N[C@@H](Cc3c[nH]cn3)C(=O)N[C@H](Cc3ccccc3)C(=O)N[C@@H](CCCNC(=N)N)C(=O)N[C@@H](Cc3c[nH]c4ccccc34)C(N)=O)nn2)C(=O)NCCC(N)=O)nn1)C(=O)N[C@@H](Cc1c[nH]cn1)C(=O)N[C@H](Cc1ccccc1)C(=O)N[C@@H](CCCNC(=N)N)C(=O)N[C@@H](Cc1c[nH]c2ccccc12)C(N)=O` (stereo partly shown) [NB300] registered a half-maximal inhibitory concentration (IC50) of 620 ± 51 nM. Also, the “Relative potency to Ac-MSH(4)” value in experiment [2] (ratio of IC50 values, fold) was found to be 7.
As for `CC(=O)N[C@@H](CCCCNC(=O)CCc1cn(CC(=O)NCCCC(CCCNC(=O)Cn2cc(CCC(=O)NCCCC[C@H](NC(C)=O)C(=O)N[C@@H](Cc3c[nH]cn3)C(=O)N[C@H](Cc3ccccc3)C(=O)N[C@@H](CCCNC(=N)N)C(=O)N[C@@H](Cc3c[nH]c4ccccc34)C(N)=O)nn2)(NC(=O)CNC(=O)Cn2cc(CCC(=O)NCCCC[C@H](NC(C)=O)C(=O)N[C@@H](Cc3c[nH]cn3)C(=O)N[C@H](Cc3ccccc3)C(=O)N[C@@H](CCCNC(=N)N)C(=O)N[C@@H](Cc3c[nH]c4ccccc34)C(N)=O)nn2)C(=O)NCCC(N)=O)nn1)C(=O)N[C@@H](Cc1c[nH]cn1)C(=O)N[C@H](Cc1ccccc1)C(=O)N[C@@H](CCCNC(=N)N)C(=O)N[C@@H](Cc1c[nH]c2ccccc12)C(N)=O` (stereo partly shown) [NB297], the half-inhibitory concentration (IC50) in experiment [2] is 71 ± 5.3 nM; in experiment [2] (IC50, MC4R binding affinity as quoted in the text), around 72 nM. Moreover, the “Relative potency to Ac-MSH(4)” value in experiment [2] (ratio of IC50 values, fold) amounted to 64.
`CC(=O)N[C@@H](CCCCNC(=O)CCc1cn(CC(=O)NCCC(=O)NCCC(=O)NCCCC(CCCNC(=O)CCNC(=O)CCNC(=O)Cn2cc(CCC(=O)NCCCC[C@H](NC(C)=O)C(=O)N[C@@H](Cc3c[nH]cn3)C(=O)N[C@H](Cc3ccccc3)C(=O)N[C@@H](CCCNC(=N)N)C(=O)N[C@@H](Cc3c[nH]c4ccccc34)C(N)=O)nn2)(NC(=O)CNC(=O)CCNC(=O)CCNC(=O)Cn2cc(CCC(=O)NCCCC[C@H](NC(C)=O)C(=O)N[C@@H](Cc3c[nH]cn3)C(=O)N[C@H](Cc3ccccc3)C(=O)N[C@@H](CCCNC(=N)N)C(=O)N[C@@H](Cc3c[nH]c4ccccc34)C(N)=O)nn2)C(=O)NCCC(N)=O)nn1)C(=O)N[C@@H](Cc1c[nH]cn1)C(=O)N[C@H](Cc1ccccc1)C(=O)N[C@@H](CCCNC(=N)N)C(=O)N[C@@H](Cc1c[nH]c2ccccc12)C(N)=O` (stereo partly shown) [NB302] returned a half-inhibitory concentration (IC50) in experiment [2] of 120 ± 10 nM. In addition, in experiment [2] (ratio of IC50 values, fold), the “Relative potency to Ac-MSH(4)” value is reported as 38.
For `CC(=O)N[C@@H](CCCCNC(=O)CCc1cn(CC(=O)NCCC(=O)NCCCC(CCCNC(=O)CCNC(=O)Cn2cc(CCC(=O)NCCCC[C@H](NC(C)=O)C(=O)N[C@@H](Cc3c[nH]cn3)C(=O)N[C@H](Cc3ccccc3)C(=O)N[C@@H](CCCNC(=N)N)C(=O)N[C@@H](Cc3c[nH]c4ccccc34)C(N)=O)nn2)(NC(=O)CNC(=O)CCNC(=O)Cn2cc(CCC(=O)NCCCC[C@H](NC(C)=O)C(=O)N[C@@H](Cc3c[nH]cn3)C(=O)N[C@H](Cc3ccccc3)C(=O)N[C@@H](CCCNC(=N)N)C(=O)N[C@@H](Cc3c[nH]c4ccccc34)C(N)=O)nn2)C(=O)NCCC(N)=O)nn1)C(=O)N[C@@H](Cc1c[nH]cn1)C(=O)N[C@H](Cc1ccccc1)C(=O)N[C@@H](CCCNC(=N)N)C(=O)N[C@@H](Cc1c[nH]c2ccccc12)C(N)=O` (stereo partly shown) [NB301], in that order: 88 ± 12 nM and 52.
For `CC(=O)N[C@@H](CCCCNC(=O)CCc1cn(CC(=O)NCC(=O)N2CCC[C@H]2C(=O)NCC(=O)NCCCC(CCCNC(=O)CNC(=O)[C@@H]2CCCN2C(=O)CNC(=O)Cn2cc(CCC(=O)NCCCC[C@H](NC(C)=O)C(=O)N[C@@H](Cc3c[nH]cn3)C(=O)N[C@H](Cc3ccccc3)C(=O)N[C@@H](CCCNC(=N)N)C(=O)N[C@@H](Cc3c[nH]c4ccccc34)C(N)=O)nn2)(NC(=O)CNC(=O)CNC(=O)[C@@H]2CCCN2C(=O)CNC(=O)Cn2cc(CCC(=O)NCCCC[C@H](NC(C)=O)C(=O)N[C@@H](Cc3c[nH]cn3)C(=O)N[C@H](Cc3ccccc3)C(=O)N[C@@H](CCCNC(=N)N)C(=O)N[C@@H](Cc3c[nH]c4ccccc34)C(N)=O)nn2)C(=O)NCCC(N)=O)nn1)C(=O)N[C@@H](Cc1c[nH]cn1)C(=O)N[C@H](Cc1ccccc1)C(=O)N[C@@H](CCCNC(=N)N)C(=O)N[C@@H](Cc1c[nH]c2ccccc12)C(N)=O` (stereo partly shown) [NB298], in that order: 220 ± 59 nM and 21.
With `CC(=O)NCC(=O)NC(CCCNC(=O)Cn1cc(CCC(=O)NCCCC[C@H](NC(C)=O)C(=O)N[C@@H](Cc2c[nH]cn2)C(=O)N[C@H](Cc2ccccc2)C(=O)N[C@@H](CCCNC(=N)N)C(=O)N[C@@H](Cc2c[nH]c3ccccc23)C(N)=O)nn1)(CCCNC(=O)Cn1cc(CCC(=O)NCCCC[C@H](NC(C)=O)C(=O)N[C@@H](Cc2c[nH]cn2)C(=O)N[C@H](Cc2ccccc2)C(=O)N[C@@H](CCCNC(=N)N)C(=O)N[C@@H](Cc2c[nH]c3ccccc23)C(N)=O)nn1)C(=O)NCCC(N)=O` (stereo partly shown) [NB399], in experiment [2] (Table 3, ratio of IC50 values, fold), the “Relative potency to NB397” value was determined as 16. Further, the “cAMP production, agonist activity at MC4R” value in experiment [1] is “agonists”.
For the molecule `CC(=O)N[C@@H](CCCCNC(=O)CCc1cn(CC(=O)NCC(=O)N2CCC[C@H]2C(=O)NCC(=O)N2CCC[C@H]2C(=O)NCC(=O)NCCCC(CCCNC(=O)CNC(=O)[C@@H]2CCCN2C(=O)CNC(=O)[C@@H]2CCCN2C(=O)CNC(=O)Cn2cc(CCC(=O)NCCCC[C@H](NC(C)=O)C(=O)N[C@@H](Cc3c[nH]cn3)C(=O)N[C@H](Cc3ccccc3)C(=O)N[C@@H](CCCNC(=N)N)C(=O)N[C@@H](Cc3c[nH]c4ccccc34)C(N)=O)nn2)(NC(=O)CNC(=O)CNC(=O)[C@@H]2CCCN2C(=O)CNC(=O)[C@@H]2CCCN2C(=O)CNC(=O)Cn2cc(CCC(=O)NCCCC[C@H](NC(C)=O)C(=O)N[C@@H](Cc3c[nH]cn3)C(=O)N[C@H](Cc3ccccc3)C(=O)N[C@@H](CCCNC(=N)N)C(=O)N[C@@H](Cc3c[nH]c4ccccc34)C(N)=O)nn2)C(=O)NCCC(N)=O)nn1)C(=O)N[C@@H](Cc1c[nH]cn1)C(=O)N[C@H](Cc1ccccc1)C(=O)N[C@@H](CCCNC(=N)N)C(=O)N[C@@H](Cc1c[nH]c2ccccc12)C(N)=O` (stereo partly shown) [NB299], in experiment [2], the IC50 was found to be 410 ± 70 nM. The “Relative potency to Ac-MSH(4)” value in experiment [2] (ratio of IC50 values, fold) stood at 11.
